ChEMBL document CHEMBL5338747, “Discovery of Quaternized Pyridine-Thiazole-Pleuromutilin Derivatives with Broad-Spectrum Antibacterial and Potent Anti-MRSA Activity” (J Med Chem, 2023)
In brackets after ≈: the same amount, converted by molar mass. Activity calls are given as the source filed them. The calls are words filed in the database; no cut-off is given here.

Legend:
Staphylococcus aureus [1] = assay: Antibacterial activity against methicillin-resistant Staphylococcus aureus ATCC 33591 infected in Kunming mouse assessed as reduction in bacterial load in kidney at 10 mg/kg, ip for 2 days starting from 1 hr post-infection by hematoxylin-eosin staining based analysis; type: functional, organism-based; conditions: time 2.0 day
Staphylococcus aureus [2] = assay: Antibacterial activity against methicillin-resistant Staphylococcus aureus ATCC 33591 infected in Kunming mouse assessed as reduction in bacterial load in liver at 10 mg/kg, ip for 2 days starting from 1 hr post-infection by hematoxylin-eosin staining based analysis; type: functional, organism-based; conditions: time 2.0 day
Staphylococcus aureus [3] = assay: Antibacterial activity against methicillin-resistant Staphylococcus aureus ATCC 33591 infected in Kunming mouse assessed as reduction in bacterial load in lungs at 10 mg/kg, ip for 2 days starting from 1 hr post-infection by hematoxylin-eosin staining based analysis; type: functional, organism-based; conditions: time 2.0 day
Staphylococcus aureus [4] = assay: Antibacterial activity against methicillin-resistant Staphylococcus aureus ATCC 33591 assessed as inhibition of bacterial growth incubated for 24 hrs by broth microdilution method; type: functional
Staphylococcus aureus [5] = assay: Antibacterial activity against methicillin-resistant Staphylococcus aureus ATCC 43300 assessed as inhibition of bacterial growth incubated for 24 hrs by broth microdilution method; type: functional
Staphylococcus aureus [6] = assay: Antibacterial activity against […] assessed as inhibition of bacterial growth incubated for 24 hrs by broth microdilution method; type: functional; conditions: ATCC 29213
[7] = test system: Staphylococcus epidermidis; assay: Antibacterial activity against methicillin-resistant Staphylococcus epidermidis ATCC 51625 assessed as inhibition of bacterial growth incubated for 24 hrs by broth microdilution method; type: functional
Acinetobacter baumannii [8] = assay: Antibacterial activity against Acinetobacter baumannii ATCC 19606 assessed as inhibition of bacterial growth incubated for 24 hrs by broth microdilution method; type: functional
Salmonella enterica = assay: Antibacterial activity against Salmonella enterica ATCC 14028 assessed as inhibition of bacterial growth incubated for 24 hrs by broth microdilution method; type: functional
Escherichia coli [9] = assay: Antibacterial activity against Escherichia coli ATCC 25922 assessed as inhibition of bacterial growth incubated for 24 hrs by broth microdilution method; type: functional
Escherichia coli [10] = assay: Antibacterial activity against Escherichia coli CMCC 44103 assessed as inhibition of bacterial growth incubated for 24 hrs by broth microdilution method; type: functional
[11] = Aqueous solubility of the compound in physiological saline measured after 12 hrs by UV spectrophotometric analysis; type: physicochemical
[12] = Cytotoxicity against human HEK293 cells assessed as reduction in cell viability measured after 48 hrs by CCK8 assay; type: toxicity, cell-based
[13] = Cytotoxicity against human A549 cells assessed as reduction in cell viability measured after 48 hrs by CCK8 assay; type: toxicity, cell-based
[14] = Cytotoxicity against human HepG2 cells assessed as reduction in cell viability measured after 48 hrs by CCK8 assay; type: toxicity, cell-based
Staphylococcus aureus [15] = assay: Disruption of biofilm formation in methicillin-resistant Staphylococcus aureus ATCC 33591 assessed as inhibition of biofilm formation at MIC measured after 24 hrs by crystal violet staining based analysis; type: functional
Escherichia coli [16] = assay: Disruption of biofilm formation in Escherichia coli ATCC 25922 assessed as inhibition of biofilm formation at MIC measured after 24 hrs by crystal violet staining based analysis; type: functional
Staphylococcus aureus [17] = assay: Disruption of biofilm formation in methicillin-resistant Staphylococcus aureus ATCC 33591 assessed as inhibition of biofilm formation at 4XMIC measured after 24 hrs by crystal violet staining based analysis; type: functional
Escherichia coli [18] = assay: Disruption of biofilm formation in Escherichia coli ATCC 25922 assessed as inhibition of biofilm formation at 4XMIC measured after 24 hrs by crystal violet staining based analysis; type: functional
Staphylococcus aureus [19] = assay: Antibacterial activity against methicillin-resistant Staphylococcus aureus ATCC 33591 infected in ip dosed Kunming mouse assessed as protection against bacterial infection administered for 7 days starting from 1 hr post-infection; type: functional
Staphylococcus aureus [20] = assay: Antibacterial activity against methicillin-resistant Staphylococcus aureus ATCC 33591 infected in Kunming mouse assessed as animal survival rate at 5 mg/kg, ip for 7 days starting from 1 hr post-infection; type: functional; conditions: time 7.0 day
Staphylococcus aureus [21] = assay: Antibacterial activity against methicillin-resistant Staphylococcus aureus 171 assessed as inhibition of bacterial growth incubated for 24 hrs by broth microdilution method; type: functional
Staphylococcus aureus [22] = assay: Antibacterial activity against methicillin-resistant Staphylococcus aureus 575 assessed as inhibition of bacterial growth incubated for 24 hrs by broth microdilution method; type: functional
Staphylococcus aureus [23] = assay: Antibacterial activity against methicillin-resistant Staphylococcus aureus 206 assessed as inhibition of bacterial growth incubated for 24 hrs by broth microdilution method; type: functional
Staphylococcus aureus [24] = assay: Antibacterial activity against methicillin-resistant Staphylococcus aureus 222 assessed as inhibition of bacterial growth incubated for 24 hrs by broth microdilution method; type: functional
Staphylococcus aureus [25] = assay: Antibacterial activity against methicillin-resistant Staphylococcus aureus 596 assessed as inhibition of bacterial growth incubated for 24 hrs by broth microdilution method; type: functional
Enterococcus = assay: Antibacterial activity against vancomycin-resistant Enterococcus 80 assessed as inhibition of bacterial growth incubated for 24 hrs by broth microdilution method; type: functional
Pseudomonas aeruginosa = assay: Antibacterial activity against multidrug-resistant Pseudomonas aeruginosa 126 assessed as inhibition of bacterial growth incubated for 24 hrs by broth microdilution method; type: functional
Klebsiella pneumoniae = assay: Antibacterial activity against multidrug-resistant Klebsiella pneumoniae 893 assessed as inhibition of bacterial growth incubated for 24 hrs by broth microdilution method; type: functional
Acinetobacter baumannii [26] = assay: Antibacterial activity against carbapenem-resistant Acinetobacter baumannii 882 assessed as inhibition of bacterial growth incubated for 24 hrs by broth microdilution method; type: functional
[27] = test system: Mesomycoplasma hyopneumoniae; assay: Anti-mycoplasma activity against Mycoplasma hyopneumoniae J NCTC10110 assessed as inhibition of mycoplasma growth measured after 7 days by broth microdilution method; type: functional; conditions: J NCTC10110, 168 h, time 7 day
[28] = test system: Mesomycoplasma hyopneumoniae; assay: Anti-mycoplasma activity against Mycoplasma hyopneumoniae LH assessed as inhibition of mycoplasma growth measured after 7 days by broth microdilution method; type: functional; conditions: 168 h, time 7 day
Mesomycoplasma hyorhinis = assay: Anti-mycoplasma activity against Mycoplasma hyorhinis BTS-7 NCTC10130 assessed as inhibition of mycoplasma growth measured after 7 days by broth microdilution method; type: functional; conditions: BTS-7 NCTC10130, 168 h, time 7 day
[29] = test system: Mycoplasmoides gallisepticum; assay: Anti-mycoplasma activity against Mycoplasma gallisepticum R NCTC10115 assessed as inhibition of mycoplasma growth measured after 7 days by broth microdilution method; type: functional; conditions: R NCTC10115, 168 h, time 7 day
Mycoplasmopsis synoviae = assay: Anti-mycoplasma activity against Mycoplasma synoviae WVU1853 NCTC10124 assessed as inhibition of mycoplasma growth measured after 7 days by broth microdilution method; type: functional; conditions: WVU1853 NCTC10124, 168 h, time 7 day
[30] = test system: Mycoplasmoides pneumoniae; assay: Anti-mycoplasma activity against Mycoplasma pneumoniae M129 ATCC15531 assessed as inhibition of mycoplasma growth measured after 7 days by broth microdilution method; type: functional; conditions: M129 ATCC15531, 168 h, time 7 day
Metamycoplasma hominis = assay: Anti-mycoplasma activity against Mycoplasma hominis PG-21 ATCC23114 assessed as inhibition of mycoplasma growth measured after 7 days by broth microdilution method; type: functional; conditions: PG-21 ATCC23114, 168 h, time 7 day
Mycoplasma genitalium = assay: Anti-mycoplasma activity against Mycoplasma genitalium G37 ATCC33530 assessed as inhibition of mycoplasma growth measured after 7 days by broth microdilution method; type: functional; conditions: Mycoplasmoides genitalium, G37 ATCC33530, 168 h; time 7 day

Compound	MIC (Staphylococcus aureus [4]) [µg/mL]	MIC (Staphylococcus aureus [5]) [µg/mL]	MIC (Staphylococcus aureus [6]) [µg/mL]	MIC [7] [µg/mL]	MIC (Acinetobacter baumannii [8]) [µg/mL]	MIC (Salmonella enterica) [µg/mL]	MIC (Escherichia coli [9]) [µg/mL]	MIC (Escherichia coli [10]) [µg/mL]	solubility at 12 h [11] [µM]	CC50 at 48 h [12] [µM]	CC50 at 48 h [13] [µM]	CC50 at 48 h [14] [µM]	MIC (Staphylococcus aureus [21]) [µg/mL]	MIC (Staphylococcus aureus [22]) [µg/mL]	MIC (Staphylococcus aureus [23]) [µg/mL]	MIC (Staphylococcus aureus [24]) [µg/mL]	MIC (Staphylococcus aureus [25]) [µg/mL]	MIC (Enterococcus) [µg/mL]	MIC (Pseudomonas aeruginosa) [µg/mL]	MIC (Klebsiella pneumoniae) [µg/mL]	also measured
C=C[C@]1(C)C[C@@H](OC(=O)CSC(C)(C)CNC(=O)[C@H](N)C(C)C)[C@]2(C)[C@H](C)CC[C@]3(CCC(=O)[C@H]32)[C@@H](C)[C@@H]1O [VALNEMULIN]	128 (≈ 227 µM)	8 (≈ 14.2 µM)	4 (≈ 7.08 µM)	64 (≈ 113 µM)	2 (≈ 3.54 µM)	64 (≈ 113 µM)	16 (≈ 28.3 µM)	64 (≈ 113 µM)	341 (≈ 193 µg/mL)	65.4	88	87.3									Activity (Staphylococcus aureus [1]): Active; Activity (Staphylococcus aureus [2]): Active; Activity (Staphylococcus aureus [3]): Active; inhibition (INH) (Staphylococcus aureus [15]): 38.1%; inhibition (INH) (Escherichia coli [16]): 26.52%; inhibition (INH) (Staphylococcus aureus [17]): 68.59%; inhibition (INH) (Escherichia coli [18]): 64.02%; ED50 (Staphylococcus aureus [19]; ATCC 33591, 168 h, time 7 day): 12.3 mg/kg; Activity (Staphylococcus aureus [19]; time 7.0 day): Dose-Dependent Effect; Activity (Staphylococcus aureus [20]): Active
C=C[C@]1(C)C[C@@H](OC(=O)CS[C@@H]2C[C@H]3CC[C@@H](C2)N3C)[C@]2(C)[C@H](C)CC[C@]3(CCC(=O)[C@H]32)[C@@H](C)[C@@H]1O [RETAPAMULIN]	32 (≈ 61.8 µM)	16 (≈ 30.9 µM)	4 (≈ 7.73 µM)	64 (≈ 124 µM)	4 (≈ 7.73 µM)	128 (≈ 247 µM)	32 (≈ 61.8 µM)	32 (≈ 61.8 µM)	289 (≈ 150 µg/mL)	83.8	> 100	76.5	128 (≈ 247 µM)	64 (≈ 124 µM)	128 (≈ 247 µM)	32 (≈ 61.8 µM)	32 (≈ 61.8 µM)	> 128	128 (≈ 247 µM)	64 (≈ 124 µM)	MIC (Acinetobacter baumannii [26]): 64 µg/mL (≈ 124 µM)
Br.C=C[C@]1(C)C[C@@H](OC(=O)CSc2nc(-c3cc[n+](Cc4ccc([N+](=O)[O-])cc4)cc3)cs2)[C@]2(C)[C@H](C)CC[C@]3(CCC(=O)[C@H]32)[C@@H](C)[C@@H]1O	1	0.5	0.125	2	2	2	1	0.5	754	86.7	> 100	75.8	64	16	16	2	2	8	8	16	MIC (Acinetobacter baumannii [26]): 16 µg/mL
C=C[C@]1(C)C[C@@H](OC(=O)CSCCN(CC)CC)[C@]2(C)[C@H](C)CC[C@]3(CCC(=O)[C@H]32)[C@@H](C)[C@@H]1O [TIAMULIN]									227 (≈ 112 µg/mL)												MIC [27]: 0.03 µg/mL (≈ 0.0608 µM); MIC [28]: 0.015 µg/mL (≈ 0.0304 µM); MIC (Mesomycoplasma hyorhinis): 0.03 µg/mL (≈ 0.0608 µM); MIC [29]: 0.125 µg/mL (≈ 0.253 µM); MIC (Mycoplasmopsis synoviae): 2 µg/mL (≈ 4.05 µM); MIC [30]: 0.125 µg/mL (≈ 0.253 µM); MIC (Metamycoplasma hominis): 0.25 µg/mL (≈ 0.506 µM); MIC (Mycoplasma genitalium): 0.03 µg/mL (≈ 0.0608 µM)
COc1c(N2C[C@@H]3CCCN[C@@H]3C2)c(F)cc2c(=O)c(C(=O)O)cn(C3CC3)c12 [MOXIFLOXACIN]	1 (≈ 2.49 µM)	0.25 (≈ 0.623 µM)	0.062 (≈ 0.154 µM)	0.5 (≈ 1.25 µM)	2 (≈ 4.98 µM)	2 (≈ 4.98 µM)	0.125 (≈ 0.311 µM)	0.25 (≈ 0.623 µM)					32 (≈ 79.7 µM)	8 (≈ 19.9 µM)	4 (≈ 9.96 µM)	0.5 (≈ 1.25 µM)	2 (≈ 4.98 µM)	0.5 (≈ 1.25 µM)	8 (≈ 19.9 µM)	16 (≈ 39.9 µM)	MIC (Acinetobacter baumannii [26]): 32 µg/mL (≈ 79.7 µM)
C=C[C@]1(C)C[C@@H](OC(=O)CSc2nc(-c3cc[n+](Cc4ccc(OC)cc4)cc3)cs2)[C@]2(C)[C@H](C)CC[C@]3(CCC(=O)[C@H]32)[C@@H](C)[C@@H]1O.[Br-]	1	1	0.5	4	2	0.5	0.5	1	653	95.4	87.4	> 100	16	32	16	4	8	2	64	64	MIC (Acinetobacter baumannii [26]): 8 µg/mL
C=C[C@]1(C)C[C@@H](OC(=O)CSc2nc(-c3cc[n+](Cc4ccsc4)cc3)cs2)[C@]2(C)[C@H](C)CC[C@]3(CCC(=O)[C@H]32)[C@@H](C)[C@@H]1O.[Br-]	1	0.5	0.25	1	8	2	1	0.5	702												
